Series [1] in a line: Photobleaching / photodecomposition experiments. It is filed as physicochemical. On the procedure: Photobleaching experiments: Photodecomposition experiments were made dissolving the photosensitizers in water with 9% dimethylsulfoxide. A volume of 3 mL was placed in a cuvette and irradiated ensuring that all the light hits the solution. The porphyrins were irradiated using a LED light with emission at 415 nm and an effective output power of 0.27 mW. Photodecomposition quantum yield (Φpd) is defined as the ratio between the rate of disappearance of photosensitizer molecules vd and the rate of absorption of photons vp.
The intensity of its longest wavelength absorption band at 622 nm decreased by less than ΔA=0.001 after 15,000 second of illumination corresponding to an effective absorption of ca. 4 J. This places an upper limit of 0.001 to the photodecomposition quantum yield.

Series [2] is described as follows: n-Octanol:PBS partition ratio (modified shake-flask). Type of series: physicochemical. As to conditions: equal volumes. The text has this:
n-Octanol:PBS partition ratio: a modification of the shake-flask method was employed to determine the equilibrium concentrations of the photosensitizer in n-octanol and in phosphate-buffered saline (PBS) mixed in equal volumes, using the typical fluorescence band of the same photosensitizer and the ratio of the fluorescences after dilution by the same factor with dimethylsulfoxide.

A short description of series [3]: Optical absorption, molar absorption coefficient. Type of series: physicochemical. As to conditions: water with 9% dimethylsulfoxide. On the procedure: Optical Absorption: The ultra-violet visible optical absorption (UV-vis) spectra used in the control of the synthesis were recorded on Hitachi U-2001 or Shimadzu 2100 spectrophotometers using spectroscopic grade solvents. The UV-Vis-NIR optical absorption was recorded with an Agilent Cary5000 UV-Vis-NIR Spectrophotometer in the determination of the molar absorption coefficient and with Shimadzu UV-2100 spectrometer in routine measurements. The absorption spectra were recorded in the wavelengths from 300 nm up to 800 nm. Molar absorption coefficients were determined by using Beer-Lambert's law. For each compound, a minimum of 6 solutions were prepared in concentrations ranging from 10^−7 to 10^−6 M, giving absorbance values between 0.1 and 1.
The absorptivities of the compounds and other photophysical and photobiological properties were measured as described in the Materials and Methods. […] This is indicative of negligible aggregation between the molecules, which exist mostly as monomers at the studied concentrations in the selected solvents. […] The same table also presents the fluorescence quantum yield (ΦF), singlet oxygen generation (ΦΔ) and the logarithm of the n-octanol:water partition coefficient (log POW). […]

Series [4] relates to Acinetobacter baumannii 141HUC. The series can be described thus: PDI phototoxicity towards multidrug-resistant planktonic bacteria (CFU). Type of series: cell-based. As to conditions: 60 min incubation, 1.36 J/cm^2 at 415 nm. As for the experimental part: (§1) Phototoxicity towards bacteria was evaluated in vitro. Assays were performed with the following bacteria: Escherichia coli ATCC 25922, Pseudomonas aeruginosa ATCC 27853 and Staphylococcus aureus ATCC 29213. Further assay were performed with clinical antibiotic-resistant strains from the Centro Hospitalar da Universidade de Coimbra, namely Staphylococcus aureus methicillin-resistant (MRSA) strain Sa1CHUC recovered from the skin of a burnt patient (resistant to all beta-lactamic antibiotics), and Acinetobacter baumannii 141HUC isolated from an exudate of a burn wound and highly resistant to all beta-lactamics (penicillins, cephalosporins, monobactams and carbapenems), quinolones and the aminoglycosides gentamicin and netilmicin. The planktonic bacteria cells were cultured in Mueller Hinton (MH) agar (Sigma Aldrich) at 37° C. overnight. Cell density was adjusted to the 0.5 McFarland standard in sterile water, which corresponds to approximately 1.5×10^8 CFU/mL. For PDI experiments cell suspensions of bacteria were incubated with various concentrations of the photosensitizers for 1 h, in the dark, at room temperature, using a 96 well plate. Then, the plate was illuminated with a blue light LED (420 nm, 4 mJ/s). Cells incubated with photosensitizers in the dark were covered with aluminum foil for the same time as the PDI groups (1 h). After illumination (or dark incubation) samples were shaken, diluted in PBS and mixed. Aliquots were taken from each well and streaked in MH agar in duplicate for CFU determination and incubated for 37° C./18-24 h in the dark. After 24 h, the colonies were counted and CFU determined. The experiments were performed in triplicate. Statistical analysis was performed with GraphPad Prism 6.
(§2) This example describes the evaluation of in vitro phototoxicity against multidrug-resistant Gram-positive and Gram-negative bacteria of the cationic ortho-5,15-di-heteroaryl porphyrin with Formula (IIa). Assays were performed with clinical resistant strains from the Centro Hospitalar da Universidade de Coimbra, namely Staphylococcus aureus methicillin-resistant (MRSA) strain Sa1CHUC collected from the skin of a burnt patient (resistant to all beta-lactamic antibiotics), and Acinetobacter baumannii 141HUC highly resistant all beta-lactamics, including carbapenems, quinolones, gentamicin and netilmicin, isolated from an exudate of a burn wound. The phototoxicity was measured according to the description in the Materials and Methods section. […] There is a dose-phototoxicity response of the test compound relative to the non-treated control. FIG. 9 illustrates the CFU reduction as a function of photosensitizer concentration for the light dose of 1.36 J/cm^2 at 415 nm.

For series [5], the system named is Staphylococcus aureus methicillin-resistant (MRSA) strain Sa1CHUC. The description is as above. It is filed as cell-based. As to conditions: 60 min incubation, 1.36 J/cm^2 at 415 nm. On the procedure:
as §1, §2

A further series can be described thus: Solubility in water. Type of series: physicochemical.

Where only a bound is given, the exact number is not on record here.

`Cn1cc[n+](C)c1C1=C2C=CC3=[N+]2[Zn@]24[n]5c(ccc51)C=C1C=CC(=[N+]12)C(c1n(C)cc[n+]1C)=c1ccc([n]14)=C3` [Formula (IIa), 5,15-bis(1,3-dimethylimidazol-2-yl)porphyrinate zinc (II) diiodide]: the photodecomposition quantum yield in series [1] (LED 415 nm, water with 9% dimethylsulfoxide) is recorded as ≤ 0.001. Besides, the “decrease ΔA of longest wavelength absorption band at 622 nm” value in series [1] (after 15,000 second of illumination, effective absorption ca. 4 J) is given as < 0.001. Further, the “log Pow” value in series [2] is −1.16. The “ε(λ)/10^3 molar absorption coefficient” value in series [3] (at 407 nm) is >20 10^3 M^−1 cm^−1. Further, the “λ (most intense absorption band)” value in series [3] is 407 nm. Further, the “reduction of the number of bacterial CFU (in words)” value in series [4] (1 μM) and in series [5] (1 μM) was “dramatic decrease in CFU” each time. The “log CFU at 1 μM, Acinetobacter 141Hu” value in series [4] (planktonic) worked out at 7. Besides, the “log CFU at 1 μM, S. Aureus MRSA” value in series [5] (planktonic) is reported as 7. In addition, in the series “Solubility in water”, the solubility in water entry was “soluble in water”.
